Measured values published in patent publication US9420813B2, “Sweetener” (AJINOMOTO CO., INC., priority 2007, dated 2016).
*1 amine or outer side, *2 acyl side, *3 side chain or, on linkers, in order; H or OH if unused. Where no end group is shown, it is not given here. [ ]: non-standard residue; d: D form. γGlu = O=C(O)[C@H](CCC(=O)[*:2])N[*:1]; Abu = CC[C@H](N)C(=O)O

Assay: Quantitative sensory evaluation, improvement of body taste and bitterness of combined high-intensity sweeteners (Examples 2 and 4)
Parameters: species or system human
Settings: for Bitterness: control 0, <0 improved; for Bitterness / Body taste: n=12; for Body taste: control 0, >0 improved
Protocol: The quantitative sensory evaluation test was performed as follows. As for a combination standard solution of each sweeteners, the following compounds were used. The following standard solutions have been adjusted so they each have almost the same degree of sweetness.
ii) APM (0.02 g/dl)+Ace-K (0.005 g/dl) [APM:Ace-K=8:2 as a ratio of degrees of sweetness]
iii) Sucralose (0.0058 g/dl)+Ace-K (0.0075 g/dl) [sucralose:Ace-K=7:3 as a ratio of degrees of sweetness]
iv) APM (0.0125 g/dl)+sucralose (0.0042 g/dl) [APM:sucralose=1:1 as a ratio of degrees of sweetness]
v) APM (0.0125 g/dl)+sucralose (0.0021 g/dl)+Ace-K (0.0063 g/dl) [APM:sucralose:Ace-K=2:1:1 as a ratio of degrees of sweetness]
To distilled water containing each of the sweeteners, γ-Glu-Cys-Gly (glutathione), γ-Glu-Val-Gly or γ-Glu-Abu-Gly was added and mixed at concentrations of 0.0001 to 1 g/dl, and then the degree of the improvement of the body taste and the improvement of the bitterness on the sweet taste was measured. The addition effect of the peptides on each of the high-intensity sweeteners was evaluated with reference to sucrose.
When a mixture is more acidic than the standard control solution, the pH of the mixture was adjusted with NaOH to achieve a range of pH±0.2 with respect to the pH of the standard solution before use.
The sensory evaluation for the improvement of the body taste was performed with n=12 on the basis of the following criteria: a control (obtained by adding distilled water only and without adding glutathione and/or the peptide) was defined as 0, and by using the control as a standard, the follow were defined: weak: −2 points; slightly weak: −1 point; slightly strong: 1 point, and strong: 2 points. A higher score than 0 means that the sample has a body taste-improving effect.
(§1) Alternatively, the sensory evaluation for the improvement of the bitterness was performed with n=12 on the basis of the following criteria: a control (obtained by adding distilled water only and without adding glutathione and/or the peptide) was defined as 0, and by using the control as a standard, the following were defined: weak: −2 points; slightly weak: −1 point; slightly strong: 1 point, and strong: 2 points. A lower score than 0 means that the sample improves the bitterness.
The quantitative sensory evaluation test was performed as follows. As for combination standard solution of each sweeteners, the following compound was used. The following standard solutions have been adjusted so they each have almost the same degree of sweetness.
To distilled water containing each sweetener mentioned above, γ-Glu-Val-Gly or cinacalcet was added and mixed at concentrations of 0.0001 to 1 g/dl, and then each degree of the improvement of the body taste and the improvement of the bitterness on the sweet taste was measured. The addition effect of the sample on each of the high intensity sweeteners was evaluated with reference to sucrose.
When a mixture is more acidic than the standard control solution, the pH of the sample was adjusted with NaOH to achieve a range of pH±0.2 with respect to the pH of the standard solution before use.
The sensory evaluation for the improvement of the body taste was performed with n=12 on the basis of the following criteria: a control (obtained with adding distilled water only and without adding the sample) was defined as 0, and by using the control as a standard, the following were defined: weak: −2 points; slightly weak: −1 point; slightly strong: 1 point, and strong: 2 points. A higher score than 0 means that the sample improves the body taste.
as §1, with “(obtained with” for “(obtained by”, “adding” for “adding glutathione and/or”, “the sample)” for “the peptide)”, “points. […]” for “points. A lower score than 0 means that the sample improves the bitterness.”

[1] = APM 0.0125 + sucralose 0.0021 + Ace-K 0.0063 g/dl (2:1:1), sample 0.001 g/dl
[2] = APM 0.0125 + sucralose 0.0021 + Ace-K 0.0063 g/dl (2:1:1), sample 0.01 g/dl
[3] = APM 0.0125 g/dl + sucralose 0.0042 g/dl (1:1), sample 0.001 g/dl
[4] = APM 0.0125 g/dl + sucralose 0.0042 g/dl (1:1), sample 0.01 g/dl
[5] = APM 0.02 g/dl + Ace-K 0.005 g/dl (8:2), sample 0.001 g/dl
[6] = APM 0.02 g/dl + Ace-K 0.005 g/dl (8:2), sample 0.01 g/dl
[7] = sucralose 0.0058 g/dl + Ace-K 0.0075 g/dl (7:3), sample 0.001 g/dl
[8] = sucralose 0.0058 g/dl + Ace-K 0.0075 g/dl (7:3), sample 0.01 g/dl
[9] = APM 0.0125 + sucralose 0.0021 + Ace-K 0.0063 g/dl (2:1:1), sample 0.05 g/dl
[10] = APM 0.0125 g/dl + sucralose 0.0042 g/dl (1:1), sample 0.05 g/dl
[11] = APM 0.02 g/dl + Ace-K 0.005 g/dl (8:2), sample 0.05 g/dl
[12] = sucralose 0.0058 g/dl + Ace-K 0.0075 g/dl (7:3), sample 0.05 g/dl

**Q.** For [γGlu]-[Abu]-Gly, which Bitterness [1] is on record?
**A.** −0.4 points

**Q.** What about the Body taste [1] of the same compound?
**A.** 0.6 points

**Q.** And the Bitterness [2]?
**A.** −0.8 points

**Q.** And the Body taste [2]?
**A.** 1.3 points

**Q.** What about the Bitterness [3] of the same compound?
**A.** −0.1 points

**Q.** What about the Body taste [3] of the same compound?
**A.** 0.6 points

**Q.** What about the Bitterness [4] of the same compound?
**A.** −0.1 points

**Q.** And the Body taste [4]?
**A.** 1.3 points

**Q.** And the Bitterness [5]?
**A.** −0.3 points

**Q.** And the Body taste [5]?
**A.** 0.6 points

**Q.** And the Bitterness [6]?
**A.** −0.7 points

**Q.** What about the Body taste [6] of the same compound?
**A.** 1.3 points

**Q.** And the Taste profile (APM:sucralose = 1:1, sample 0.001 g/dl)?
**A.** Harmony is present. Sweet taste is enhanced

**Q.** What about the Taste profile (APM:sucralose = 1:1, sample 0.01 g/dl) of the same compound?
**A.** Harmony is present. Sweet taste is enhanced

**Q.** And the Bitterness [7]?
**A.** −0.3 points

**Q.** And the Body taste [7]?
**A.** 0.5 points

**Q.** And the Bitterness [8]?
**A.** −0.7 points

**Q.** What about the Body taste [8] of the same compound?
**A.** 1.1 points

**Q.** For `N[C@@H](CCC(=O)N[C@@H](CS)C(=O)NCC(=O)O)C(=O)O` [γ-Glu-Cys-Gly, reference compound], which Bitterness [9] is on record?
**A.** −0.3 points

**Q.** And the Body taste [9]?
**A.** 1.2 points

**Q.** What about the Bitterness [10] of the same compound?
**A.** −0.3 points

**Q.** And the Body taste [10]?
**A.** 1.0 points

**Q.** And the Bitterness [11]?
**A.** −0.3 points

**Q.** And the Body taste [11]?
**A.** 1.0 points

**Q.** What about the Taste profile (APM:Ace-K = 8:2, sample 0.05 g/dl) of the same compound?
**A.** Sweet taste is wholly enhanced.

**Q.** And the Taste profile (APM:sucralose = 1:1, sample 0.05 g/dl)?
**A.** Sweet taste is enhanced in middle taste.

**Q.** What about the Taste profile (APM:sucralose:Ace-K = 2:1:1, sample 0.05 g/dl) of the same compound?
**A.** Sweet taste is wholly enhanced.

**Q.** What about the Bitterness [12] of the same compound?
**A.** −0.3 points

**Q.** What about the Body taste [12] of the same compound?
**A.** 1.0 points

**Q.** And the Taste profile (sucralose:Ace-K = 7:3, sample 0.05 g/dl)?
**A.** Sweet taste is enhanced in middle taste.
